From EP4707280A1, “1,4-CINEOLE DERIVATIVE AND INTERMEDIATE THEREOF, HERBICIDE CONTAINING SAID DERIVATIVE AS ACTIVE INGREDIENT, METHOD FOR USING HERBICIDE, AND METHOD FOR PREPARING AGROCHEMICAL COMPOSITION” (HOKKO CHEMICAL INDUSTRY CO., LTD., priority 2023, dated 2024)

Key:
Assay type in all cases: in vivo
Monochoria vaginalis [1] = experiment: Test Example 5: herbicidal effect test by soil application in paddy rice (low dose); details: Pontederia vaginalis, 336 h, 7.5 g per 10 ares, applied immediately after sowing, flooded pots, 14 days after application, read-out: weed inhibition rate
Outline: (§1)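 7.5 g a.i./10 a applied by dropper into ~3 cm floodwater immediately post-sowing (seeds 0–1 cm, 30 per species; puddled fertilized paddy soil, glasshouse). Duplicates; day-14 inhibition %.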

Scirpus juncoides [2] = experiment: as above; details: Schoenoplectiella juncoides, 336 h, 7.5 g per 10 ares, applied immediately after sowing, flooded pots, 14 days after application, read-out: weed inhibition rate
Outline: as §1

Scirpus juncoides [3] = experiment: Test Example 1: herbicidal effect test by soil application in paddy rice; details: 120 g active ingredient per 10 ares, applied immediately after sowing, flooded pots, 14 days after application; for pest or weed control at 1200 g/ha: Schoenoplectiella juncoides, soil, 336 h, read-out: weed inhibition rate
Outline: (§2)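 Soil-applied test under flooded paddy conditions (~3 cm water) in a glass greenhouse. Seeds were sown shallow (0–1 cm, 30 per species), then compound was dripped in as diluted emulsifiable concentrate at 120 g a.i./10 a.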

[4] = tested on: Echinochloa crus-galli var. formosensis; experiment: as above; details: 120 g active ingredient per 10 ares, applied immediately after sowing, flooded pots, 14 days after application; for pest or weed control at 1200 g/ha: Echinochloa crus-galli, soil, 336 h, read-out: weed inhibition rate
Outline: as §2

Digitaria ciliaris [5] = experiment: Test Example 4: herbicidal effect test by stem and leaf treatment in upland field; details: Digitaria ciliaris; 120 g per 10 ares; sprayed seven days after sowing, upland soil; 14 days after application; read-out: weed inhibition rate
Monochoria vaginalis [6] = experiment: Test Example 6: herbicidal effect test by application during growth period of paddy rice (low dose); details: Pontederia vaginalis; 7.5 g per 10 ares; applied seven days after sowing, flooded pots; 14 days after application; read-out: weed inhibition rate
Outline: (§3)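 Paddy soil in flooded Wagner pots (about 3 cm water), weeds sown at 0–1 cm, 30 seeds each, grown in a glass greenhouse. Seven days after sowing, water-diluted emulsifiable concentrate was dropped into the water at 7.5 g active ingredient per 10 ares. Weed inhibition rate (%) was scored 14 days after application, in duplicate.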

Scirpus juncoides [7] = experiment: as above; details: Schoenoplectiella juncoides; 7.5 g per 10 ares; applied seven days after sowing, flooded pots; 14 days after application; read-out: weed inhibition rate
Outline: as §3

Echinochloa crus-galli = experiment: Test Example 3: herbicidal effect test by soil application in upland field; details: Echinochloa crus-galli, 120 g per 10 ares, sprayed one day after sowing, 14 days after application, read-out: weed inhibition rate
Outline: (§4)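 Pre-emergence test: seeds mixed into top 1 cm of alluvial loam upland soil in pots; emulsifiable concentrate diluted in water sprayed on soil one day after sowing at 100 L/10 a, 120 g a.i./10 a. Weed inhibition rate (%) scored at 14 days, in duplicate.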

Digitaria ciliaris [8] = experiment: as above; details: Digitaria ciliaris, 120 g per 10 ares, sprayed one day after sowing, 14 days after application, read-out: weed inhibition rate
Outline: as §4

Amaranthus viridis = experiment: as above; details: Amaranthus viridis, 120 g per 10 ares, sprayed one day after sowing, 14 days after application, read-out: weed inhibition rate
Outline: as §4

CC(C)[C@]12C[C@@H](OCc3ccccc3)[C@](C)(C[C@@H]1Br)O2 [1-15, (1S,2R,4R,5S)-5-bromo-1-methyl-2-phenylmethoxy-4-isopropyl-7-oxabicyclo[2.2.1]heptane]
≥ 80%: inhibition at 75 g/ha (Monochoria vaginalis [1]) | inhibition at 75 g/ha (Scirpus juncoides [2]) | pest or weed control at 1200 g/ha (Scirpus juncoides [3]) | pest or weed control at 1200 g/ha [4] | inhibition at 1200 g/ha (Digitaria ciliaris [5]) | inhibition at 75 g/ha (Monochoria vaginalis [6]) | inhibition at 75 g/ha (Scirpus juncoides [7]) | inhibition at 1200 g/ha (Echinochloa crus-galli) | inhibition at 1200 g/ha (Digitaria ciliaris [8])

CC(C)[C@]12C[C@@H](OCc3c(F)cccc3F)[C@](C)(C[C@@H]1Br)O2 [1-21, (1S,2R,4R,5S)-5-bromo-2-[(2,6-difluorophenyl)methoxy]-1-methyl-4-isopropyl-7-oxabicyclo[2.2.1]heptane]
≥ 80%: inhibition at 75 g/ha (Monochoria vaginalis [1]) | inhibition at 75 g/ha (Scirpus juncoides [2]) | pest or weed control at 1200 g/ha (Scirpus juncoides [3]) | pest or weed control at 1200 g/ha [4] | inhibition at 1200 g/ha (Digitaria ciliaris [5]) | inhibition at 75 g/ha (Monochoria vaginalis [6]) | inhibition at 75 g/ha (Scirpus juncoides [7]) | inhibition at 1200 g/ha (Echinochloa crus-galli) | inhibition at 1200 g/ha (Digitaria ciliaris [8])

Cc1ccccc1CO[C@@H]1C[C@]2(C(C)C)O[C@@]1(C)C[C@@H]2O [1-24, (1R,2S,4S,5R)-1-isopropyl-4-methyl-5-((2-methylbenzyl)oxy)-7-oxabicyclo[2.2.1]heptan-2-ol]
≥ 80%: inhibition at 75 g/ha (Monochoria vaginalis [1]) | inhibition at 75 g/ha (Scirpus juncoides [2]) | pest or weed control at 1200 g/ha (Scirpus juncoides [3]) | pest or weed control at 1200 g/ha [4] | inhibition at 1200 g/ha (Digitaria ciliaris [5]) | inhibition at 75 g/ha (Monochoria vaginalis [6]) | inhibition at 75 g/ha (Scirpus juncoides [7]) | inhibition at 1200 g/ha (Echinochloa crus-galli) | inhibition at 1200 g/ha (Digitaria ciliaris [8])

CO[C@H]1C[C@]2(C)O[C@@]1(C(C)C)C[C@H]2OCc1ccccc1C [1-151, (1 S,2R,4R,5S)-4-isopropyl-5-methoxy-l-methyl-2-((2-methylbenzyl)oxy)-7-oxabicyclo[2.2.1]heptane]
≥ 80%: inhibition at 75 g/ha (Scirpus juncoides [2]) | weed inhibition rate (Scirpus juncoides [3]) | weed inhibition rate [4] | inhibition at 1200 g/ha (Digitaria ciliaris [5]) | inhibition at 75 g/ha (Scirpus juncoides [7]) | inhibition at 1200 g/ha (Echinochloa crus-galli) | inhibition at 1200 g/ha (Digitaria ciliaris [8])

CCO[C@H]1C[C@]2(C)O[C@@]1(C(C)C)C[C@H]2OCc1ccccc1F [1-183, (1S,2R,4R,5S)-5-ethoxy-2-[(2-fluorophenyl)methoxy]-1-methyl-4-isopropyl-7-oxabicyclo[2.2.1]heptane]
≥ 80%: inhibition at 75 g/ha (Monochoria vaginalis [1]) | inhibition at 75 g/ha (Scirpus juncoides [2]) | pest or weed control at 1200 g/ha (Scirpus juncoides [3]) | pest or weed control at 1200 g/ha [4] | inhibition at 1200 g/ha (Digitaria ciliaris [5]) | inhibition at 75 g/ha (Monochoria vaginalis [6]) | inhibition at 75 g/ha (Scirpus juncoides [7]) | inhibition at 1200 g/ha (Echinochloa crus-galli) | inhibition at 1200 g/ha (Digitaria ciliaris [8])

Cc1ccc(CO[C@@H]2C[C@]3(C(C)C)O[C@@]2(C)C[C@@H]3Br)cc1 [1-681, (1S,2R,4R,5S)-5-bromo-1-methyl-2-[(4-methylphenyl)methoxy]-4-isopropyl-7-oxabicyclo[2.2.1]heptane]
≥ 80%: pest or weed control at 1200 g/ha (Scirpus juncoides [3]) | pest or weed control at 1200 g/ha [4] | inhibition at 1200 g/ha (Digitaria ciliaris [5]) | inhibition at 75 g/ha (Monochoria vaginalis [6]) | inhibition at 75 g/ha (Scirpus juncoides [7]) | inhibition at 1200 g/ha (Echinochloa crus-galli) | inhibition at 1200 g/ha (Digitaria ciliaris [8])

CC(C)[C@]12C[C@@H](OCc3ccc(F)cc3)[C@](C)(C[C@@H]1Br)O2 [1-691, (1S,2R,4R,5S)-5-bromo-2-[(4-fluorophenyl)methoxy]-1-methyl-4-isopropyl-7-oxabicyclo[2.2.1]heptane]
≥ 80%: inhibition at 75 g/ha (Monochoria vaginalis [1]) | inhibition at 75 g/ha (Scirpus juncoides [2]) | pest or weed control at 1200 g/ha (Scirpus juncoides [3]) | pest or weed control at 1200 g/ha [4] | inhibition at 1200 g/ha (Digitaria ciliaris [5]) | inhibition at 75 g/ha (Monochoria vaginalis [6]) | inhibition at 75 g/ha (Scirpus juncoides [7]) | inhibition at 1200 g/ha (Echinochloa crus-galli) | inhibition at 1200 g/ha (Digitaria ciliaris [8])

CC(C)[C@]12C[C@@H](OCc3ccsc3)[C@](C)(C[C@@H]1Br)O2 [1-722, (1S,2R,4R,5S)-5-bromo-1-methyl-4-isopropyl-2-(thiophen-3-ylmethoxy)-7-oxabicyclo[2.2.1]heptane]
≥ 80%: inhibition at 75 g/ha (Monochoria vaginalis [1]) | inhibition at 75 g/ha (Scirpus juncoides [2]) | pest or weed control at 1200 g/ha (Scirpus juncoides [3]) | pest or weed control at 1200 g/ha [4] | inhibition at 1200 g/ha (Digitaria ciliaris [5]) | inhibition at 75 g/ha (Monochoria vaginalis [6]) | inhibition at 75 g/ha (Scirpus juncoides [7]) | inhibition at 1200 g/ha (Echinochloa crus-galli) | inhibition at 1200 g/ha (Digitaria ciliaris [8])

CC(C)[C@]12C[C@@H](OCc3ccccc3F)[C@](C)(C[C@@H]1I)O2 [1-753, (1S,2R,4R,SS)-2-[(2-fluorophenyl)methoxy]-5-iodo-1-methyl-4-isopropyl-7-oxabicyclo[2.2.1]heptane]
≥ 80%: inhibition at 75 g/ha (Monochoria vaginalis [1]) | inhibition at 75 g/ha (Scirpus juncoides [2]) | weed inhibition rate (Scirpus juncoides [3]) | weed inhibition rate [4] | inhibition at 75 g/ha (Monochoria vaginalis [6]) | inhibition at 1200 g/ha (Echinochloa crus-galli) | inhibition at 1200 g/ha (Digitaria ciliaris [8]) | inhibition at 1200 g/ha (Amaranthus viridis)

CC(C)C12CC(OCc3ccccc3F)C(C)(CC1Br)O2 (centres unmarked) [1-1355, 5-bromo-2-[(2-fluorophenyl)methoxy]-1-methyl-4-isopropyl-7-oxabicyclo[2.2.1]heptane]
≥ 80%: inhibition at 75 g/ha (Monochoria vaginalis [1]) | inhibition at 75 g/ha (Scirpus juncoides [2]) | pest or weed control at 1200 g/ha (Scirpus juncoides [3]) | pest or weed control at 1200 g/ha [4] | inhibition at 1200 g/ha (Digitaria ciliaris [5]) | inhibition at 75 g/ha (Monochoria vaginalis [6]) | inhibition at 75 g/ha (Scirpus juncoides [7]) | inhibition at 1200 g/ha (Echinochloa crus-galli) | inhibition at 1200 g/ha (Digitaria ciliaris [8])

C=CCO[C@H]1C[C@]2(C)O[C@@]1(C(C)C)C[C@H]2OCc1ccccc1F [1-1602, (1S,2R,4R,5S)-2-[(2-fluorophenyl)methoxy]-1-methyl-4-isopropyl-5-prop-2-enoxy-7-oxabicyclo[2.2.1]heptane]
≥ 80%: inhibition at 75 g/ha (Scirpus juncoides [2]) | pest or weed control at 1200 g/ha (Scirpus juncoides [3]) | pest or weed control at 1200 g/ha [4] | inhibition at 1200 g/ha (Digitaria ciliaris [5]) | inhibition at 75 g/ha (Monochoria vaginalis [6]) | inhibition at 75 g/ha (Scirpus juncoides [7]) | inhibition at 1200 g/ha (Echinochloa crus-galli) | inhibition at 1200 g/ha (Digitaria ciliaris [8])

Cc1cccc(F)c1CO[C@@H]1C[C@]2(C(C)C)O[C@@]1(C)CC2=O [2-353, (1R,4S,5R)-5-((2-fluoro-6-methylbenzyl)oxy)-1-isopropyl-4-methyl-7-oxabicyclo[2.2.1]heptan-2-one]
≥ 80%: inhibition at 75 g/ha (Monochoria vaginalis [1]) | inhibition at 75 g/ha (Scirpus juncoides [2]) | pest or weed control at 1200 g/ha (Scirpus juncoides [3]) | pest or weed control at 1200 g/ha [4] | inhibition at 1200 g/ha (Digitaria ciliaris [5]) | inhibition at 75 g/ha (Monochoria vaginalis [6]) | inhibition at 75 g/ha (Scirpus juncoides [7]) | inhibition at 1200 g/ha (Echinochloa crus-galli) | inhibition at 1200 g/ha (Digitaria ciliaris [8])

CC(C)[C@]12C=C[C@](C)(O1)[C@H](OCc1c(F)cccc1F)C2 [3-7, (1R,4S,5R)-5-[(2,6-difluorophenyl)methoxy]-4-methyl-1-isopropyl-7-oxabicyclo[2.2.1]hept-2-ene]
≥ 80%: inhibition at 75 g/ha (Monochoria vaginalis [1]) | inhibition at 75 g/ha (Scirpus juncoides [2]) | pest or weed control at 1200 g/ha (Scirpus juncoides [3]) | pest or weed control at 1200 g/ha [4] | inhibition at 1200 g/ha (Digitaria ciliaris [5]) | inhibition at 75 g/ha (Scirpus juncoides [7]) | inhibition at 1200 g/ha (Echinochloa crus-galli) | inhibition at 1200 g/ha (Digitaria ciliaris [8])
